In the assay the target is tyrosinase. The experiment in a line: absorbance at […] nm, L-DOPA oxidation. As to conditions: L-DOPA […] stock, […] phosphate, pH […] °C, […] min preincubation. It counts as biochemical.

With `O=c1c(O)c(-c2ccc(O)c(O)c2)oc2cc(O)cc(O)c12` [Quercetin], the “Control (Quercetin) / IC50 (μg/mL)s” value stood at 22.15 ± 0.12 µg/mL.

These data come from PMC11063393 (Heliyon, 2024).
